Laboratory results reported in patent publication US20250197425A1, “2,6,9-TRISUBSTITUTED PURINES” (ASTRAZENECA AB, priority 2022, published 2025).
In brackets after ≈: the same amount, converted by molar mass. Like-named read-outs stand apart in the source and are kept apart here.

Columns and labels:
[1] = system: MCF-7 cells; test: Cellular proliferation EdU assay, MCF-7; assay type: cell-based; settings: EdU assay, two days, read-out: MCF-7 IC50
Description: (§1) Compounds were tested to assess inhibition of cellular proliferation in the breast cancer cell line MCF-7 and the CCNE1-amplified ovarian cell line OVCAR3.
(§2) MCF-7 and OVCAR3 cells in RPMI supplemented with 10% Fetal bovine serum were seeded into 384-well plates (Greiner, Kremsmunster, Austria; 781091), 30 μL/well, using a WellMate. The MCF7 and OVCAR3 cells were seeded at 800 and 1200 cells/well, respectively. Test compounds were added to the wells using an Echo 555 liquid handler and the plates were placed in incubator maintained at 37° C. and 5% CO2 and incubated for two days. On Day 2, an EdU assay was performed following the manufacturer's protocol (Thermo Fisher, C10351). The cells were read on an Acumen eX3 instrument. The IC50 values of test compounds were determined in Genedata by assessing the ratio of signal intensity at 488 nm to the area of signal at 405 nm.

[2] = biological target: CDK2:CCNE1 (Homo sapiens (Human), UniProt P24941); test: NanoBRET assay in MCF-7 cells, CDK2; assay type: cell-based; settings: transfected MCF-7 cells, 2 hours, n = 1 or average
Description: Compounds were tested in breast cancer cell line MCF-7 to assess inhibition of CDK1, CDK2, and CDK4 activity. […] The next day media were evacuated from the wells using the Bluewasher centrifugal plate washer (Bluecatbio) and 10 μL/well phenol red free OptiMEM was then added using a Multidrop Combi. […] Immediately after compound addition, a Tecan HP300 dispensor was used to dispense the relevant NanoBRET™ tracer to the CDK1 wells (12.5 nl, 400 μM, NanoBRET™ TE Tracer K-9), the CDK2 wells (12.5 nl, 200 μM, NanoBRET™ TE Tracer K-9), and the CDK4 wells (8 nl, 100 μM, NanoBRET™ TE Tracer K-7) and the plates were incubated for 2 hours at 37° C. and 5% CO2. […] The plates were incubated in subdued lighting for 10 minutes and then read on a Pherastar FS plate reader (BMG Technologies) using a NanoBRET™ filter module (460±80 nm/610 nm-LP). The ratio values were normalized to controls and the IC50 values of test compounds determined using Genedata Screener software.

[3] = system: POLR2A Ser2 phosphorylation (CDK9); test: POLR2A Ser2 phosphorylation imaging assay in MCF-7 cells; assay type: cell-based; settings: MCF-7 cells, 2 hours, read-out: POLR2A Ser2 phosphorylation IC50
Description: Compounds were tested to assess their effect on CDK9 activity in a cellular context. […] During the cell cycle, CDK9 is a component of a multiprotein complex that phosphorylates POLR2A Ser2 which results in transcription elongation.
[…] were fixed by addition of 40 μL/well of 8% paraformaldehyde and incubated for 10 minutes at room temperature. The plates were washed three times with 50 μL/well PBS using a Biotek EL406 plate washer and then permeabilized for 10 minutes at room temperature in 0.3% Triton X100 in PBS. After washing as before, the plates were blocked using 30 μL/well of 2% BSA (w/v) in PBS-T for over 30 minutes at room temperature. […] After washing in PBS as before, leaving each well in 40 μL of PBS, the plates were sealed and imaged on a Cell Insight imaging system (Thermo) with a 10× objective and 2 fields of view per well. POLR2A Ser2levels were normalized to controls and the IC50 values of test compounds determined using Genedata Screener software.

[4] = CLint assessment in human liver microsomes (HLM); assay type: in vitro ADME; settings: 1 μM
Description: After a preincubation with NADPH for 8 minutes, reactions were initiated through the addition of the test compound (final volume 250 μl) and incubated at 37° C. in a water bath for 30 minutes. […] Samples were shaken at 800 rpm for 2 minutes and centrifuged at 4000 rpm for 20 minutes at 4° C. to pellet precipitated protein. The supernatant fraction was diluted 1:5 with deionized water, shaken at 1000 rpm for 2 minutes, and further diluted 1:1 with deionized water. Samples were analyzed by LC-MS/MS. The t1/2 and the CLint of the compounds incubated in the LM, HLM, and HμREL assays as described above were calculated according to the following equations: […] where V (μl/×10^6 cells or mg protein) is the incubation volume (μl) divided by the number of cells (×10^6) or microsomal protein content (mg) in the incubation.

[5] = system: OVCAR3 cells; test: Cellular proliferation EdU assay, OVCAR3; assay type: cell-based, human; settings: EdU assay, two days, read-out: OVCAR3 IC50
Description: as §1, §2

[6] = system: NPM phosphorylation (Thr199, CDK2-cyclin E complex); test: NPM phosphorylation imaging assay in MCF-7 cells; assay type: cell-based; settings: 4N DNA cells
Description: Compounds were tested to assess the effects of CDK2 inhibition in a cellular context. […] During the cell cycle, the CDK2-cyclin E complex phosphorylates NPM at Thr199 which is a prerequisite step for initiation of centrosome duplication.
The cells were fixed by addition of 40 μL/well of 8% paraformaldehyde and incubated at room temperature for 10 minutes. The plates were washed three times with 50 μL/well PBS using a Biotek EL406 plate washer and then permeabilized for 10 minutes at room temperature in 0.3% Triton X100 in PBS. After washing as before, the plates were blocked using 30 μL/well of 2% BSA (w/v) in PBS-T for at least 30 minutes at room temperature. […] Cells containing 4N DNA were selected using the Hoechst staining. Phospho-NPM levels were normalized to controls and the IC50 values of test compounds determined using Genedata Screener software.

[7] = Aqueous thermodynamic solubility, shake-flask; assay type: physicochemical; settings: phosphate buffer 0.1 M, pH 7.4, 24 hours
Description: The DMSO was evaporated and the dried compounds were equilibrated in glass vials in aqueous phosphate buffer (0.1 M, pH 7.4) for 24 hours at 25° C. under constant stirring. The portion with the dissolved compound was then separated from the remainder through a double centrifugation with a tip wash in between to ensure that no residues of the dried compound were interfering. The solutions were diluted with purified water before quantification using UPLC/MS/MS.

[8] = biological target: CDK4:CCND1 (Homo sapiens (Human), UniProt P11802); test: NanoBRET assay in MCF-7 cells, CDK4; assay type: cell-based; settings: NanoBRET, transfected MCF-7 cells, 2 hours; n = 1 or average; read-out: CDK4 IC50
Description: (§3) Compounds were tested in breast cancer cell line MCF-7 to assess inhibition of CDK1, CDK2, and CDK4 activity. MCF-7 cells transiently transfected with CDK1:CCNB1, CDK2:CCNE1, or CDK4:CCND1 were harvested at a density of 1E5 cells/mL in complete media, seeded 20 μL/well into 384-well Greiner 784080 plates using a Multidrop Combi, and incubated overnight at 37° C. and 5% CO2. The next day media were evacuated from the wells using the Bluewasher centrifugal plate washer (Bluecatbio) and 10 μL/well phenol red free OptiMEM was then added using a Multidrop Combi. […] Immediately after compound addition, a Tecan HP300 dispensor was used to dispense the relevant NanoBRET™ tracer to the CDK1 wells (12.5 nl, 400 μM, NanoBRET™ TE Tracer K-9), the CDK2 wells (12.5 nl, 200 μM, NanoBRET™ TE Tracer K-9), and the CDK4 wells (8 nl, 100 μM, NanoBRET™ TE Tracer K-7) and the plates were incubated for 2 hours at 37° C. and 5% CO2. The plates were allowed to cool for 10 minutes at room temperature and 5 μL/well of TE Nano-Glo®Substrate/Inhibitor at 2.4 μM and 1:500 respectively (N2162 Promega) was added. The plates were incubated in subdued lighting for 10 minutes and then read on a Pherastar FS plate reader (BMG Technologies) using a NanoBRET™ filter module (460±80 nm/610 nm-LP). The ratio values were normalized to controls and the IC50 values of test compounds determined using Genedata Screener software.

[9] = biological target: CDK1:CCNB1 (Homo sapiens (Human), UniProt P06493); test: NanoBRET assay in MCF-7 cells, CDK1; assay type: cell-based; settings: NanoBRET, transfected MCF-7 cells, 2 hours; n = 1 or average; read-out: CDK1 IC50
Description: as §3

[10] = aqueous phosphate buffer, 25 °C, pH 7.4, aqueous buffer, thermodynamic from solid

Sequence of CDK1:CCNB1 (P06493 whole entry): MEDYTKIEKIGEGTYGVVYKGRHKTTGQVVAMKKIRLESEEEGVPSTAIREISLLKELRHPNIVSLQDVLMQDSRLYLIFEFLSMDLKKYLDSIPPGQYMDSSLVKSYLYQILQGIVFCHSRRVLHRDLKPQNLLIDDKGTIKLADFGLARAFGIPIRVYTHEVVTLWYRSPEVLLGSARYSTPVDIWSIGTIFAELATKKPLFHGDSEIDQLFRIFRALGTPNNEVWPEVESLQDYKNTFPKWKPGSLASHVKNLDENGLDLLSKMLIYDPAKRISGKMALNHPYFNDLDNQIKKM
Sequence of CDK1:CCNB1 (P14635 whole entry partner): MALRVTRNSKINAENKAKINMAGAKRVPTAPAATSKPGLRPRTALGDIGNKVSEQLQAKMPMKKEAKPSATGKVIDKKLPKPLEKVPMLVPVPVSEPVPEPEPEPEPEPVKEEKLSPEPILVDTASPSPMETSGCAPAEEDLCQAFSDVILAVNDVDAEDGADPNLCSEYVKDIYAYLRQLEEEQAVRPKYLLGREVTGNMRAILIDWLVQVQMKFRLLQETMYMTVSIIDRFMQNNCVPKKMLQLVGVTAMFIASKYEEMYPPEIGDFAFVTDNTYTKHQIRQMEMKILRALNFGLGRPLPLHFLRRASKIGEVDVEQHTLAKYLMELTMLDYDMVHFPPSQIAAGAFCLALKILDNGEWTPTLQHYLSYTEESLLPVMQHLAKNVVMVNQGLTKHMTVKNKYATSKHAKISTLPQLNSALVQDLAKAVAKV
Sequence of CDK4:CCND1 (P11802 whole entry): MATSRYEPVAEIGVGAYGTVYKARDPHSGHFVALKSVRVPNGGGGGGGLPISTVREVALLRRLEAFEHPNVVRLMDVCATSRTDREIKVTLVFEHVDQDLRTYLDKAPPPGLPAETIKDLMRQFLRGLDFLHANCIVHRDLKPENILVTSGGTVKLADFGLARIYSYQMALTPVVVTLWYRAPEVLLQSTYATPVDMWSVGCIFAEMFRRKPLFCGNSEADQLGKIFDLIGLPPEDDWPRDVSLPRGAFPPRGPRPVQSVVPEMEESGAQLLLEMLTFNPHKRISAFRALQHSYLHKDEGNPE
Sequence of CDK4:CCND1 (P24385 whole entry partner): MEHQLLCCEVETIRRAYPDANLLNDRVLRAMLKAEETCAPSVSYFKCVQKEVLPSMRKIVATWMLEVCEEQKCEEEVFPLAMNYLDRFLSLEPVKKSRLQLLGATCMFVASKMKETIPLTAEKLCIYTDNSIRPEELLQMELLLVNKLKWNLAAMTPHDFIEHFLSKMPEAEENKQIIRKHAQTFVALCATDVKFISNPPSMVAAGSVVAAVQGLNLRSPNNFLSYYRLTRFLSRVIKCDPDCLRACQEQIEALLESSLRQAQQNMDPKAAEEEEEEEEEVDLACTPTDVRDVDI

## CCNS(=O)(=O)N1CC[C@H](Nc2cc(N[C@@H](CC)[C@@H](C)O)nc3c2ncn3CC)C1 [Example 60, (S)—N-ethyl-3-((3-ethyl-5-(((2R,3S)-2-hydroxypentan-3-yl)amino)-3H-imidazo[4,5-b]pyridin-7-yl)amino)pyrrolidine-1-sulfonamide]
[1]; Homo sapiens, MCF7, 48 h
  IC50: 637 nM
[2]
  IC50: 14 nM
[3]; Homo sapiens, MCF7, 2 h
  IC50: 6100 nM
[4]
  HLM CLint: 65.6 µL/min/mg
[5]; Homo sapiens, OVCAR-3, 48 h
  IC50: 89 nM
[6]; Homo sapiens, MCF7, 2 h
  IC50: 64 nM
[7]; [10]
  solubility at 24 h: 51.3 µM (≈ 22.6 µg/mL)
[8]
  IC50: 2500 nM
[9]
  IC50: 426 nM

## CCn1cnc2c(N[C@H]3CCN(S(=O)(=O)CF)C3)nc(N[C@@H](CO)C(C)C)nc21 [Example 43, (R)-2-((9-ethyl-6-(((S)-1-(fluoromethylsulfonyl)pyrrolidin-3-yl)-amino)-9H-purin-2-yl)amino)-3-methylbutan-1-ol]
[1]; Homo sapiens, MCF7, 48 h
  IC50: 328 nM
[2]
  IC50: 11 nM
[3]; Homo sapiens, MCF7, 2 h
  IC50: > 30000 nM
[4]
  HLM CLint: 148 µL/min/mg
[5]; Homo sapiens, OVCAR-3, 48 h
  IC50: 291 nM
[6]; Homo sapiens, MCF7, 2 h
  IC50: 150 nM
[7]; [10]
  solubility at 24 h: 97.2 µM (≈ 41.7 µg/mL)
[8]
  IC50: 5200 nM
[9]
  IC50: 557 nM

## CC[C@H](Nc1nc(N[C@H]2CCN(S(=O)(=O)c3cn(C)cn3)C2)c2ncn(C(C)C)c2n1)[C@@H](C)O [Example 32, (2R,3S)-3-((9-isopropyl-6-(((S)-1-((1-methyl-1H-imidazol-4-yl)sulfonyl)pyrrolidin-3-yl)amino)-9H-purin-2-yl)amino)pentan-2-ol]
[1]; Homo sapiens, MCF7, 48 h
  IC50: 3010 nM
[2]
  IC50: 82 nM
[3]; Homo sapiens, MCF7, 2 h
  IC50: > 30000 nM
[4]
  HLM CLint: 73 µL/min/mg
[5]; Homo sapiens, OVCAR-3, 48 h
  IC50: 688 nM
[6]; Homo sapiens, MCF7, 2 hours
  IC50: 607 nM
[7]; [10]
  solubility at 24 h: > 1000 µM
[8]
  IC50: 28000 nM
[9]
  IC50: 2210 nM

## CC[C@H](Nc1nc(N[C@H]2CCN(S(=O)(=O)NC[C@H]3COCCO3)C2)c2ncn(CC)c2n1)[C@@H](C)O [Example 23, (S)—N—(((S)-1,4-dioxan-2-yl)methyl)-3-((9-ethyl-2-(((2R,3S)-2-hydroxypentan-3-yl)amino)-9H-purin-6-yl)amino)pyrrolidine-1-sulfonamide]
[1]; Homo sapiens, MCF7, 48 h
  IC50: 1950 nM
[2]
  IC50: 57 nM
[3]; Homo sapiens, MCF7, 2 h
  IC50: > 30000 nM
[4]
  HLM CLint: 57.5 µL/min/mg
[5]; Homo sapiens, OVCAR-3, 48 h
  IC50: 495 nM
[6]; Homo sapiens, MCF7, 2 hours
  IC50: 484 nM
[7]; [10]
  solubility at 24 h: 814 µM (≈ 417 µg/mL)
[8]
  IC50: > 29700 nM
[9]
  IC50: 2600 nM

## CCn1cnc2c(N[C@H]3CCN(S(=O)(=O)NC)C3)nc(N[C@@H]3c4ccccc4C[C@@H]3O)nc21 [Example 51, (S)-3-((9-ethyl-2-(((1R,2S)-2-hydroxy-2,3-dihydro-1H-inden-1-yl)amino)-9H-purin-6-yl)amino)-N-methylpyrrolidine-1-sulfonamide]
[1]; Homo sapiens, MCF7, 48 h
  IC50: 536 nM
[2]
  IC50: 32 nM
[3]; Homo sapiens, MCF7, 2 h
  IC50: 7400 nM
[4]
  HLM CLint: 212 µL/min/mg
[5]; Homo sapiens, OVCAR-3, 48 h
  IC50: 324 nM
[6]; Homo sapiens, MCF7, 2 h
  IC50: 157 nM
[7]; [10]
  solubility at 24 h: 35 µM (≈ 16.5 µg/mL)
[8]
  IC50: 1900 nM
[9]
  IC50: 532 nM

## CCn1cnc2c(N[C@H]3CCN(S(=O)(=O)NC)C3)nc(N[C@@H](C)[C@@H](O)C(F)(F)F)nc21 (single isomer, unassigned) [Example 50, (S)-3-((9-ethyl-2-(((2R*,3S*)-4,4,4-trifluoro-3-hydroxybutan-2-yl)amino)-9H-purin-6-yl)amino)-N-methylpyrrolidine-1-sulfonamide]
[1]
  IC50: 2760 nM
[2]
  IC50: 64 nM
[3]
  IC50: > 30000 nM
[4]
  HLM CLint: 36.3 µL/min/mg
[5]
  IC50: 1220 nM
[6]; 2 hours
  IC50: 412 nM
[7]; 25° C.
  solubility at 24 h: 23.1 µM (≈ 10.8 µg/mL)
[8]
  IC50: 14200 nM
[9]
  IC50: 2350 nM

## CC(C)[C@H](CO)Nc1nc(N[C@@H]2CN(S(C)(=O)=O)C[C@H]2C)c2ncn(C(C)C)c2n1 [Example 36, (R)-2-((9-isopropyl-6-(((3S,4R)-4-methyl-1-(methylsulfonyl)-pyrrolidin-3-yl)amino)-9H-purin-2-yl)amino)-3-methylbutan-1-ol]
[1]; Homo sapiens, MCF7, 48 h
  IC50: 3010 nM
[2]
  IC50: 50 nM
[3]; Homo sapiens, MCF7, 2 h
  IC50: > 30000 nM
[4]
  HLM CLint: >300 µL/min/mg
[5]; Homo sapiens, OVCAR-3, 48 h
  IC50: 1250 nM
[6]; Homo sapiens, MCF7, 2 hours
  IC50: 1230 nM
[7]; [10]
  solubility at 24 h: 11.1 µM (≈ 4.88 µg/mL)
[8]
  IC50: > 29700 nM
[9]
  IC50: 2020 nM
